The subject of one test is 5-LO. Kind of test: Test c): ex vivo assay, compound administered, blood collected, A23187 challenge, LTB₄ radioimmunoassay. In kind it is in vivo. The method, then:
(§1) As stated previously, the heterocyclic cycloalkanes of the formula I are inhibitors of the enzyme 5-LO. […] This test provides a measure of the intrinsic inhibitory properties against soluble 5-LO in an extracellular environment. • b) An in vitro assay system involving incubating a test compound with heparinised human blood, prior to challenge with the calcium ionophore A23187 and then indirectly measuring the inhibitory effects on 5-LO by assaying the amount of LTB₄ using the specific radioimmunoassay described by Carey and Forder (F. Carey and R.A. Forder, Brit. […] The effects of a test compound on the enzyme cyclooxygenase (which is involved in the alternative metabolic pathway for arachidonic acid and gives rise to prostaglandins, thromboxanes and related metabolites) may be measured at the same time using the specific radioimmunoassay for thromboxane B₂(TxB₂) described by Carey and Forder (see above). […] It permits the selectivity of the inhibitory effect on 5-LO or cyclooxygenase to be assessed. • c) An ex vivo assay system, which is a variation of test b) above, involving administration of a test compound (usually orally as the suspension produced when a solution of the test compound in dimethylsulphoxide is added to carboxymethylcellulose), blood collection, heparinisation, challenge with A23187 and radioimmunoassay of LTB₄ and TxB₂. […]

The target of the next test is T1, cyclooxygenase (Homo sapiens, UniProt P23219).
T1 construct: incubating a test compound with heparinised human blood; endogenous in cells; host or cells: blood cells (platelets) in heparinised human whole blood
Kind of test: Test b): heparinised human blood challenged with A23187, TxB₂ radioimmunoassay. It is filed as cell-based. The settings on record: read-out: IC₅₀ (TxB₂). The method, then: as §1

Structures are written as SMILES. A value given as a limit tells only on which side of the number the result lay.

T1 sequence (P23219 24-599): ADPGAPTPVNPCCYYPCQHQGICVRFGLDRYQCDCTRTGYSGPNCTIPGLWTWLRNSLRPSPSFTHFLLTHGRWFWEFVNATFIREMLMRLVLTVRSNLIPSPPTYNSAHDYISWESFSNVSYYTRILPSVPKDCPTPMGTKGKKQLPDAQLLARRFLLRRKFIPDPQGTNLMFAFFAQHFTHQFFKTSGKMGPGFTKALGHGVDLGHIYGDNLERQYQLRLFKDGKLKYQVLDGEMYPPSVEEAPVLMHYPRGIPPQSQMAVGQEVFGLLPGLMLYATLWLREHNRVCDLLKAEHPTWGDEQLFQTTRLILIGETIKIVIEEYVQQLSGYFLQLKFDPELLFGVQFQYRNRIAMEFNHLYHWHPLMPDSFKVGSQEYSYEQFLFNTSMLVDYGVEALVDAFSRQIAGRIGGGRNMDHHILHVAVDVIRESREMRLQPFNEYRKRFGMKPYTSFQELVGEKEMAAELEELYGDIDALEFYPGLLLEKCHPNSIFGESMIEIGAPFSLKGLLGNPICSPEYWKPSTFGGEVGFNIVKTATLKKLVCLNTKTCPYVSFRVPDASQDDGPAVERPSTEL

On to `CO[C@@H]1CCC[C@]1(OC)c1cccc(OCC#Cc2ccccn2)c1` (relative stereo) [Example 2, trans-1,2-dimethoxy-1-[3-(3-(2-pyridyl)prop-2-yn-1-yloxy)phenyl]cyclopentane], for which the “oral ED₅₀(LTB₄)” value in the test on 5-LO was less than 100 mg/kg. In addition, the IC50 on cyclooxygenase was greater than 40 µM.

The values are drawn from patent EP0385663B1, “Heterocyclic cycloalkanes as inhibitors of 5-lipoxygenase” (ZENECA LIMITED, priority 1989, dated 1990).
